The values that follow come from patent US20100021555A1, “Compositions containing high omega-3 and low saturated fatty acid levels” (priority 2004, published 2010).

One data set relates to dairy cows. The conditions noted are these: cited from earlier work.
The subject of another data set is bovine hepatocytes. The conditions noted are these: bovine hepatocytes supplemented in vitro; cited from earlier work.
The next data set concerns rumen microorganisms. The conditions noted are these: in vitro; cited from earlier work.
In a further data set the test system is lactating dairy cows. The experiment in a line: Pilot supplementation study in lactating dairy cows: milk fatty acids by GC. The format is in vivo, Friesian dairy cows. From the text:
(§1) Ethical approval was obtained from the University of Auckland Animal Ethics Committee to undertake an pilot supplementation study. The study involved supplementing the diets of four Friesian dairy cows with single daily dose of 40 and 160 of ethyl-eicospaentaenoic acid (>98% purity) for nine days. Cows were divided into a high-to-low dose (HTLD) group (n=2) with animals supplemented with 160 grams of EPA at day one with the dose decreasing by 15 grams each day to reach 40 grams at day nine and a low-to-high dose (LTHD) group (n=2) with animals supplemented with 40 grams on day one the dose increasing by 15 grams each day to reach 160 grams at day nine. Feeding and milk sampling was undertaken between 19 and 29 August 2004 at a dairy farm in West Aucldand under the supervision of a supervising veterinarian with experience in caring for the herd. Supplements were given by drenching gun once daily in the morning subsequent to milking. Prior to supplementation each day duplicate 50 ml samples of milk were collected from each animal and stored in 100 ml polyethylene containers in a temperature controlled minus 20 deg C. freezer within one hour of collection. Milk samples were thawed and fatty acids extracted and prepared for analysis. Milkfat was methylated by dissolving in hexane and reaction with 2 molar KOH methanol. 20 milligrams of fat dissolved in 2 mls in N-Hexane then 20 micro-litres of 2 molar KOH methanol was added left to stand for 3 seconds and vortexed vigorously for 30 seconds. The mixture was then allowed to stand for 6 minutes before being neutralized to methyl red with 2 molar HCl in water before being vortexed again and centrifuged (modified method from agilent website also reported in Terry Knight publications) Knight T. W., et al., New Zealand Journal Of Agricultural Research 47:3,: 287-297 SEP (2004). An aliquot of hexane was then taken and analysed by GCFID 6890 (Agilent Corp) with 105 meter 0.25 mm RTX2330 90% bis cyanoprofile column (Restek) and 0.25 micron film thickness. Fatty acids were identified by retention time in comparison with a 37-component mixture (Suplco). Peak areas were corrected for peak response using theoretical response factors (AOCS reference). Results were reported as area under curve.
A permutation based method of statistical analysis was used to assess FA baseline composition with reference to a reference baseline derived from population of four thousand one hundred NZ Fresian dairy cows. Each fatty acid peak measured in the feeding trial was logged (log base 2), and had the day 0 (baseline) measurement subtracted to report a change from baseline at each time point. Significance of the changes in four-cow and two-cow means was tested by randomly selecting many groups of two or four cows from the herd of 4100 animal reference dataset and comparing the feeding trial results against the mean of logged measurements from the larger reference population. This produced baseline distributions for each group size which were centered at zero to match the baseline centered means from the animals in the feeding trial. Significance thresholds were then adjusted for the number of fatty acid peaks being investigated, and the number of measurements taken.

The subject of another data set is delta-9-desaturase. Put plainly: Milkfat substrate/product ratios (SFA : monounsaturated counterpart), proxy for delta-9-desaturase activity. The format is in vivo, Friesian dairy cows. The conditions noted are these: for C:18:C18:1 ratio in milkfat: baseline 0.49; for C:10:C10:1 ratio in milkfat: baseline 12.66; for C:14:C14:1 ratio in milkfat: baseline 14.93; for C:16:C16:1 ratio in milkfat: baseline 17.40.
From the text: as §1
Saturated Fatty Acids: A reduction in dietary amounts of certain saturated fatty acids (SFAs), including in particular the major milk fatty acid C16:0, a has been recommended by health experts (WHO Technical Report Series 916, WHO Geneva (2003)). Under normal circumstances about 50% of dietary C16:0 is taken up by the mammary gland. […] This decrease in milkfat C16:0 is unlikely to be explained by altered feeding behavior during the study given corresponding changes were not observed in other SFAs. In order to investigate the contribution of further metabolism of C16:0 in the mammary gland to palmitoleic acid (C16:1) we compared substrate/product ratios in milkfat for a number of SFAs and their monounsaturated fatty acid counterparts. These ratios are considered to be a proxy measure for the activity of the delta-9-desaturase activity enzyme. (see Table 1 below).

With `CC/C=C\C/C=C\C/C=C\CCCCCCCC(=O)O` [ALA, alpha linolenic acid], the EPA in milkfat entry in the data set with dairy cows (duodenal infusion of 500 grams per day of ALA) is listed as “no concomitant increase”. The “level of ALA in milkfat” value in the data set on dairy cows (duodenal infusion of 500 grams per day) is listed as 14%.
For `CC/C=C\C/C=C\C/C=C\C/C=C\C/C=C\CCCC(=O)O` [EPA, 5,8,11,14,17,-eicosapentaenoic acid (20:5n-3)], the “oxidation of C16:0” value in the data set with bovine hepatocytes is listed as “significant increase”. Further, in the data set on rumen microorganisms, the “biohydrogenation of linoleic (LA C18:2) and alpha-linolenic (ALA C18:3) acid” value is “inhibition”.
For `CC/C=C\C/C=C\C/C=C\C/C=C\C/C=C\CCCC(=O)OCC` [ethyl-eicospaentaenoic acid], in the data set with lactating dairy cows (HTLD group), the “day by which milk DPA rose significantly from baseline” value was “three” and the “day by which milk EPA rose significantly from baseline” value is “two”. For the same compound, in the data set with lactating dairy cows (HTLD group (160 to 40 g/day), peak at day five), the “EPA as a percentage of total fatty acids in milk, peak” value was found to be 1.55 % TFA. Moreover, the “DPA as a percentage of total fatty acids in milk, peak” value in the data set with lactating dairy cows (HTLD group, peak at day six) turned out to be 0.41 % TFA. Further, in the data set on lactating dairy cows (LTHD group), the “day by which milk DPA rose significantly from baseline” value is “seven” and the “day by which milk EPA rose significantly from baseline” value is given as “five”. Also, the “EPA as a percentage of total fatty acids in milk, peak” value with lactating dairy cows (LTHD group (40 to 160 g/day), peak at day nine) is recorded as 1.29 % TFA. The “DPA as a percentage of total fatty acids in milk, peak” value with lactating dairy cows (LTHD group, peak at day eleven) is on record as 0.38 % TFA. The “milkfat stearic acid (C18:0)” value in the data set on lactating dairy cows (already significant by day three) is “dramatic reduction”. The “maximum reduction of % TFA C16:0 in milk” value in the data set on lactating dairy cows (day nine, across both groups) is on record as 15.44 % of baseline levels. Further, in the data set on lactating dairy cows (day nine, across both groups, baseline 36.78), the “% TFA C16:0 in milk” value was 31.1 % TFA. Further, in the data set with lactating dairy cows (in vivo), the “CLA in milk, increase over baseline levels at maximum” value was found to be 375% and the “CLA in milk, maximum level” value was 4.2 % of total fatty acids. Moreover, the “CLA in milk, mean increase over baseline levels” value in the data set on lactating dairy cows (mean) worked out at 274%. The DHA in milk entry in the data set with lactating dairy cows (undetectable at baseline, throughout the study) is listed as “remained unchanged”. Also, in the data set with delta-9-desaturase (Day Eleven), the “C:10:C10:1 ratio, % of baseline” value is 106.4 % of baseline; the “C:14:C14:1 ratio, % of baseline” value is listed as 110.6 % of baseline; the “C:16:C16:1 ratio, % of baseline” value was 113.4 % of baseline; the “C:18:C18:1 ratio, % of baseline” value was 98 % of baseline. For the same compound, in the data set on delta-9-desaturase (Day Eleven), the “C:18:C18:1 ratio in milkfat” value is 0.48, the “C:10:C10:1 ratio in milkfat” value was 13.46, the “C:14:C14:1 ratio in milkfat” value is recorded as 16.51 and the “C:16:C16:1 ratio in milkfat” value came to 19.67. In the data set on delta-9-desaturase (Day Five), the “C:10:C10:1 ratio, % of baseline” value is 82.5 % of baseline; the “C:14:C14:1 ratio, % of baseline” value is 83.3 % of baseline; the “C:16:C16:1 ratio, % of baseline” value is listed as 90.6 % of baseline; the “C:18:C18:1 ratio, % of baseline” value is given as 65.3 % of baseline. Besides, in the data set with delta-9-desaturase (Day Five), the “C:18:C18:1 ratio in milkfat” value stood at 0.32, the “C:14:C14:1 ratio in milkfat” value is 12.44 and the “C:16:C16:1 ratio in milkfat” value is 15.76. The “C:10:C10:1 ratio in milkfat” value in the data set on delta-9-desaturase (Day Five, across both groups) stood at 10.45.
